“Also recorded” adds a separate entry of the source.

Format in all cases: cell-based, human
Assay [1] deals with EFNB2-tdTomato/EPHB4-EGFP dual reporter cells (H1 ES cells). In words: Arterial endothelial differentiation of EFNB2-tdTomato/EPHB4-EGFP dual reporter cells, flow cytometry. The note with it: for arterial endothelial cell differentiation (EFNB2-tdTomato high/EPHB4-EGFP low cells), factor added: added day 2 to day 6 to E5 + 50 ng/ml VEGFA + 10 μM SB431542, 5 μM L690, 5 μg/ml LDL, 100 ng/ml PDGF-BB, FIGS. 3E-3F; for EFNB2-tdTomato high/EPHB4-EGFP low cells, factor removed from five factors medium: individual removal, FIGS. 4A-4B; for arterial endothelial differentiation of human pluripotent stem cells (conclusion after FACS sorting and RT-qPCR): summary statement; for arterial specification (EFNB2-tdTomato and EPHB4-EGFP expression), factor added singly: added to Control medium (E5+100 ng/ml FGF2+10 μM SB431542): 50 ng/ml VEGF, 5 μM RESV or 50 ng/ml WNT3A, FIG. 11; for arterial differentiation (EFNB2-tdTomato high/EPHB4-EGFP low cells), factor removed: factor removed from the medium after mesoderm formation, day 2 to day 6, FIGS. 3A-3F; for EFNB2-tdTomato high/EPHB4-EGFP low cells / arterial differentiation, factor added to five factors medium: 100 ng/ml PDGF-BB or exogenous WNT3A, FIGS. 4A-4F, FIG. 9. As to the method: (A) Flow cytometric analysis of EFNB2-tdTomato and EPHB4-EGFP expression on CD31 and CD144 gated endothelial cells. EFNB2-tdTomato/EPHB4-EGFP dual reporter cells (hetero knock-in in H1 cells for each gene) were first differentiated into mesoderm cells by E8BAC medium (E8 medium supplemented with BMP4, Activin-A, and CHIR99021). E5 (E8 medium minus FGF2, TGFβ1, and insulin) medium supplemented with 100 ng/ml FGF2, 50 ng/ml VEGFA, and 50 ng/ml BMP4 was used to induce mesoderm cells to differentiate into endothelial cells from day 2 to day 6. Either Insulin (20 μg/ml) or Ly294002 (16 μM, a PI3K inhibitor) was added to the medium as indicated from day 2 to day 6. (B) Statistics of EFNB2-tdTommato^high/EPHB4-EGFP^low cells. […] (C) Western blots showing AKT activity. Protein was harvested at day 3. (D) Flow cytometric analysis of EFNB2-tdTomato and EPHB4-EGFP expression on CD31 and CD144 gated endothelial cells. E5 medium supplemented with 50 ng/ml VEGFA, 50 ng/ml BMP4 or 10 μM SB431542 was used to induce mesoderm cells to differentiate into endothelial cells from day 2 to day 6. (E) Flow cytometric analysis of EFNB2-tdTomato and EPHB4-EGFP expression on CD31 and CD144 gated endothelial cells. ES cells were first differentiated into mesoderm cells as mentioned above. E5 medium supplemented with 50 ng/ml VEGFA and 10 μM SB431542 was used as the base medium induce mesoderm cells to differentiate into endothelial cells from day 2 to day 6. Other factors were added to the base medium as indicated. (F) Statistics of EFNB2-tdTomato^high/EPHB4-EGFP^low cells. […] FIGS. 4A-4H present flow cytometric analysis of expression of EphrinB2 and Ephrin Type B Receptor 4 reporter constructs (EFNB2-tdTomato and EPHB4-EGFP) on CD31- and CD144-gated endothelial cells obtained after differentiation in various medium, as described. FIG. 4B illustrates the percentage of arterial endothelial cells (AEC) (EFNB2-tdTomato^high/EPHB4-EGFP^low) obtained after differentiation in the various medium conditions of FIG. 4A. Data are represented as mean±SD. […] FIG. 4D illustrates the percentage of CXCR4^+CD144^+ arterial endothelial cells obtained after differentiation in the various medium conditions of FIG. 4C. […] FIG. 4F illustrates the percentage of DLL4^+CD144^+ arterial endothelial cells obtained after differentiation in the various medium conditions of FIG. 4E. 5 μM L-690,330 (a bisphosphonate inhibitor of inositol monophosphatase), and 100 ng/ml PDGF-BB (platelet derived growth factor BB) were used. […] FIGS. 11A-11C present arterial endothelial cell differentiation data. (A) Schematic of arterial endothelial cell differentiation protocol. ES cells were first differentiated into mesoderm cells by E8BAC medium (E8 medium supplemented with 5 ng/ml BMP4, 25 ng/ml Activin A, and 1 μM CHIR99021). E5 (E8 medium minus FGF2, TGFβ1, and insulin) medium supplemented with 100 ng/ml FGF2 and 10 μM SB431542 was then used to induce mesoderm cells to differentiate into endothelial cells. (B) Flow cytometric analysis of CD31 and CD34 expression. E5+100 ng/ml FGF2+10 μM SB431542 medium (“Control”) supplemented with 50 ng/ml VEGF, 5 μM RESV (resveratrol, a Notch activator), or 50 ng/ml WNT3A was used to induce mesoderm cells to differentiate into arterial endothelial cells. (C) Flow cytometric analysis of EFNB2-tdTomato and EPHB4-EGFP expression.
In general terms: A flow cytometer gives signals particle by particle.

Assay [2] deals with CXCR4+CD144+ and DLL4+CD144+ arterial endothelial cells. As to the kind of experiment: Flow cytometry of CXCR4/CD144 and DLL4/CD144 on differentiated endothelial cells. Particulars: FIGS. 4C-4F; for CXCR4 and DLL4 (CD144+CXCR4+ and CD144+DLL4+ cells), factor removed from five factors medium: individual removal. The text has this:
FIGS. 4A-4H present flow cytometric analysis of expression of EphrinB2 and Ephrin Type B Receptor 4 reporter constructs (EFNB2-tdTomato and EPHB4-EGFP) on CD31- and CD144-gated endothelial cells obtained after differentiation in various medium, as described. FIG. 4B illustrates the percentage of arterial endothelial cells (AEC) (EFNB2-tdTomato^high/EPHB4-EGFP^low) obtained after differentiation in the various medium conditions of FIG. 4A. Data are represented as mean±SD. […] FIG. 4D illustrates the percentage of CXCR4^+CD144^+ arterial endothelial cells obtained after differentiation in the various medium conditions of FIG. 4C. […] FIG. 4F illustrates the percentage of DLL4^+CD144^+ arterial endothelial cells obtained after differentiation in the various medium conditions of FIG. 4E. 5 μM L-690,330 (a bisphosphonate inhibitor of inositol monophosphatase), and 100 ng/ml PDGF-BB (platelet derived growth factor BB) were used. […] Arterial endothelial cell differentiation and expansion: It took six days for AECs differentiation. From day 0 to day 2, human ES/iPS cells were first differentiated into mesoderm cells as mentioned above. From day 2 to day 6, E5 medium was used and growth factors or small molecules were added as indicated. With the combination of “five factors,” AECs were induced by E5 medium supplemented with 100 ng/ml FGF, 50 ng/ml VEGF, 10 μM SB431542, 5 μM RESV, and 10 μM […] from day 2 to day 6.

A further assay deals with AKT. In words: Western blot of AKT activity (pAKT) during differentiation. Particulars: protein harvested at day 3, insulin 20 μg/ml, Ly294002 16 μM, FIG. 3C. As to the method: FIGS. 3A-3F present candidate pathways critical for arteriovenous specification. (A) Flow cytometric analysis of EFNB2-tdTomato and EPHB4-EGFP expression on CD31 and CD144 gated endothelial cells. EFNB2-tdTomato/EPHB4-EGFP dual reporter cells (hetero knock-in in H1 cells for each gene) were first differentiated into mesoderm cells by E8BAC medium (E8 medium supplemented with BMP4, Activin-A, and CHIR99021). E5 (E8 medium minus FGF2, TGFβ1, and insulin) medium supplemented with 100 ng/ml FGF2, 50 ng/ml VEGFA, and 50 ng/ml BMP4 was used to induce mesoderm cells to differentiate into endothelial cells from day 2 to day 6. Either Insulin (20 μg/ml) or Ly294002 (16 μM, a PI3K inhibitor) was added to the medium as indicated from day 2 to day 6. (B) Statistics of EFNB2-tdTommato^high/EPHB4-EGFP^low cells. Data are represented as mean±SD. *: P<0.05, n=5. (C) Western blots showing AKT activity. Protein was harvested at day 3. (D) Flow cytometric analysis of EFNB2-tdTomato and EPHB4-EGFP expression on CD31 and CD144 gated endothelial cells. E5 medium supplemented with 50 ng/ml VEGFA, 50 ng/ml BMP4 or 10 μM SB431542 was used to induce mesoderm cells to differentiate into endothelial cells from day 2 to day 6. (E) Flow cytometric analysis of EFNB2-tdTomato and EPHB4-EGFP expression on CD31 and CD144 gated endothelial cells. ES cells were first differentiated into mesoderm cells as mentioned above. […]
Background: A western blot detects proteins with antibodies after separation by electrophoresis.

In the case of `CC(Oc1ccc(O)cc1)(P(=O)(O)O)P(=O)(O)O` [L-690,330, reference compound], in assay [1], the “arterial endothelial cell differentiation (EFNB2-tdTomato high/EPHB4-EGFP low cells), factor added” value was “increased arterial endothelial cell differentiation”; the “EFNB2-tdTomato high/EPHB4-EGFP low cells, factor removed from five factors medium” value is recorded as “fewer”; the “arterial endothelial differentiation of human pluripotent stem cells (conclusion after FACS sorting and RT-qPCR)” value (“arterial endothelial differentiation” below) is reported as “promote arterial endothelial differentiation”. In addition, in assay [2], the “CXCR4 and DLL4 (CD144+CXCR4+ and CD144+DLL4+ cells), factor removed from five factors medium” value (from here on “CXCR4 and DLL4”) is “no reduction”.
Regarding `Oc1ccc(C=Cc2cc(O)cc(O)c2)cc1` [RESV, 3,4′,5-trihydroxystilbene, reference compound], in assay [1], the “arterial specification (EFNB2-tdTomato and EPHB4-EGFP expression), factor added singly” value is given as “promoted increased arterial specification”; the “EFNB2-tdTomato high/EPHB4-EGFP low cells, factor removed from five factors medium” value is given as “decrease”.
Regarding FGF2: human fibroblast growth factor 2, in assay [1], the “arterial endothelial cell differentiation (EFNB2-tdTomato high/EPHB4-EGFP low cells), factor added” value is reported as “increased arterial endothelial cell differentiation”; the “EFNB2-tdTomato high/EPHB4-EGFP low cells, factor removed from five factors medium” value is “decrease”; the “arterial endothelial differentiation” value is given as “promote arterial endothelial differentiation”. Moreover, the “CXCR4 and DLL4” value in assay [2] is given as “decreased”.
On to `NC(=O)c1ccc(-c2nc(-c3ccc4c(c3)OCO4)c(-c3ccccn3)[nH]2)cc1` [SB431542, reference compound], for which, in assay [1], the “arterial differentiation (EFNB2-tdTomato high/EPHB4-EGFP low cells), factor removed” value is given as “inhibited arterial differentiation” and the “EFNB2-tdTomato high/EPHB4-EGFP low cells, factor removed from five factors medium” value is on record as “decrease”. In assay [2], the “CXCR4 and DLL4” value was “decreased”.
TGF-β: the “arterial endothelial differentiation” value in assay [1] was “inhibit arterial endothelial differentiation”.
“insulin: insulin, medium component, activates AKT”: in assay [1], the “arterial differentiation (EFNB2-tdTomato high/EPHB4-EGFP low cells), factor removed” value is recorded as “triggered AEC differentiation”; the “arterial endothelial differentiation” value was “inhibit arterial endothelial differentiation”. Moreover, the “Phosphorylated AKT (pAKT)” value with AKT was “increased”.

B1: PDGF-BB: platelet derived growth factor BB (protein, UniProt P01127 82-190, looked up)
Platelet-derived growth …: SLGSLTIAEPAMIAECKTRTEVFEISRRLIDRTNANFLVWPPCVEVQRCSGCCNNRNVQCRPTQVQLRPVQVRKIEIVRKKPIFKKATVTLEDHLACKCETVAAARPVT
modifications: homodimer
In the case of B1, in assay [1], the “EFNB2-tdTomato high/EPHB4-EGFP low cells / arterial differentiation, factor added to five factors medium” value was “fewer”; the “arterial endothelial cell differentiation (EFNB2-tdTomato high/EPHB4-EGFP low cells), factor added” value is given as “inhibited arterial differentiation”; the “arterial endothelial differentiation” value is recorded as “inhibit arterial endothelial differentiation”. The “CD144+CXCR4+ and CD144+DLL4+ cells, factor added to five factors medium” value in assay [2] (100 ng/ml PDGF-BB) is recorded as “no reduction”.

B2: WNT3A: recombinant protein, Wnt signaling factor added to medium (protein, UniProt P56704 19-352, looked up)
Protein Wnt-3a: SYPIWWSLAVGPQYSSLGSQPILCASIPGLVPKQLRFCRNYVEIMPSVAEGIKIGIQECQHQFRGRRWNCTTVHDSLAIFGPVLDKATRESAFVHAIASAGVAFAVTRSCAEGTAAICGCSSRHQGSPGKGWKWGGCSEDIEFGGMVSREFADARENRPDARSAMNRHNNEAGRQAIASHMHLKCKCHGLSGSCEVKTCWWSQPDFRAIGDFLKDKYDSASEMVVEKHRESRGWVETLRPRYTYFKVPTERDLVYYEASPNFCEPNPETGSFGTRDRTCNVSSHGIDGCDLLCCGRGHNARAERRREKCRCVFHWCCYVSCQECTRVYDVHTCK
For the molecule B2, in assay [1], the “EFNB2-tdTomato high/EPHB4-EGFP low cells / arterial differentiation, factor added to five factors medium” value is given as “did not further increase arterial differentiation”; the “arterial specification (EFNB2-tdTomato and EPHB4-EGFP expression), factor added singly” value is on record as “promoted increased arterial specification; also recorded: promoted arterial differentiation”.

The record behind these values is patent US11674123B2, “Generating arterial endothelial cell populations” (Wisconsin Alumni Research Foundation, priority 2015, dated 2023).
